Data set [1] in a line: Chromium absorption in humans based on urinary chromium excretion. The procedure: Experiments were carried out to investigate the efficacy of chromium-histidine complexes in the absorption process. Chromium was administered in the formulations listed in Table 1 at dosages of 200 μg chromium to three adult males and three females, and absorption during the first 24 hours was measured based on urinary chromium excretion.

For data set [2] the following is noted: chromium picolinate: at intakes up to 1000 μg per day; cited from earlier work.
The nature of data set [3]: Stability. In kind it is physicochemical. The following applies: aqueous solutions.
Data set [4] is described as follows: Water solubility. Format: physicochemical.
Data set [5] deals with steroid-induced diabetes. The following applies: 600 μg of chromium per day for 2 weeks followed by daily maintenance dose of 200 μg; cited from earlier work.
Data set [6] has as its system hemoglobin A1C. The settings on record: type 2 diabetes, cited from earlier work.
For data set [7], the system named is insulin sensitivity. The settings on record: 1000 μg daily of supplemental chromium, obese subjects with family history of diabetes; cited from earlier work.

Read-outs that look alike come from different tables or passages of the source. Marks after values point to notes of the source that are not given here.

Consider `[Cl][Cr]([Cl])[Cl]` [Chromium chloride], for which the “μGRAMS ABSORBED (chromium absorbed)” value in data set [1] (first 24 hours following intake of 200 μg of chromium, based on urinary chromium excretion, 3 adult males and 3 females) is listed as 0.44 ± 0.07^b μGRAMS. Moreover, the Absorption of chromium result in data set [2] is listed as “approximately 0.4%”.

As for `N[C@@H](Cc1c[nH]cn1)C(=O)O.[Cr]` [Chromium histidine], the “Absorption level relative to chromium picolinate” value in data set [1] (200 μg chromium, first 24 hours, urinary chromium excretion) was “almost twice”. For the same compound, in data set [3], the Stability result is on record as “stable in aqueous solutions”. In addition, the Water solubility entry in data set [4] was “water-soluble”.

Chromium picolinate: in data set [5], the “People whose steroid-induced diabetes improved to acceptable levels” value was 47 of 50. The “Hemoglobin A1C” value was 7.5±0.2% in data set [6] (200 μg chromium per day for 4 months) and 6.6±0.1% in data set [6] (1000 μg of chromium per day for 4 months). In addition, the Insulin sensitivity result in data set [7] is “improved”.

The values are drawn from US6689383B1, “Chromium-histidine complexes as nutrient supplements” (The United States of America as represented by the …, priority 1999, dated 2004).
